The subject of one data set is A/Perth/16/2009 (H3N2). The data set can be described thus: Antiviral activity (drug efficacy evaluation by concentration) against A/Perth/16/2009 (H3N2). The format is cell-based, A type influenza virus. As to conditions: Influenza A virus.
Data set [1] concerns A/California/07/2009 (H1N1). The data set can be described thus: Antiviral activity (drug efficacy evaluation by concentration) against A/California/07/2009 (H1N1). The format is cell-based, A type influenza virus. As to conditions: Influenza A virus.
For another data set, the system named is B/Florida/04/2006. The data set can be described thus: Antiviral activity (drug efficacy evaluation by concentration) against B/Florida/04/2006. The format is cell-based, B type influenza virus.
[2] abbreviates: CC50, third EC50/CC50 column pair (c7), beside the EC50 of c6.
Setting [3] is: H3N2, A/Perth/16/2009 (H3N2), read-out: EC50 A/Perth/16/2009 (H3N2).
Where [4] appears, read: H1N1, A/California/07/2009 (H1N1), read-out: EC50 A/California/07/2009 (H1N1).
Setting [5] is: read-out: EC50 B/Florida/04/2006, B/Florida/04/2006.
Where [6] appears, read: CC50 B/Florida/04/2006, cytotoxicity in the B/Florida/04/2006 assay.

From patent US11149033B2, “Heteroaryl compound, enantiomer, diastereomer or pharmaceutically acceptable salt thereof, and antiviral composition containing same as active ingredient” (priority 2016, dated 2021) come the findings set out here.

Where two headings read alike, the source gives them in different places.

A word on the melting point: it is the temperature of the solid-liquid transition. The molecule `Clc1cc2c(cc1/C=C/c1nnc(Cc3ccc(Br)cc3)o1)OCO2` [Compound 162, 2-(4-bromobenzyl)-5-(2-(6-chlorobenzo[d][1,3]dioxol-5-yl)vinyl)-1,3,4-oxadiazole] came in with a melting point of 186.2 °C. Further, the EC50 in the data set on A/Perth/16/2009 (H3N2) (H3N2, read-out: EC50) is > 50 µM. The EC50 in data set [1] (H1N1, read-out: EC50) amounted to 30.5 µM. In addition, in the data set on B/Florida/04/2006, the EC50 was > 50 µM. Also, the CC50 in the data set “in vitro” (CC50, beside the EC50 of c2) was > 50 µM. The CC50 in “in vitro” (CC50, beside the EC50 of c4) was > 50 µM. For the same molecule, in the data set “in vitro” (setting [2]), the CC50 is > 50 µM.
For the molecule `COC(=O)c1ccccc1CSc1nnc(Cn2nc(C)c(Br)c2C)o1` [Compound 37, methyl 2-(((5-((4-bromo-3,5-dimethyl-1H-pyrazol-1-yl)methyl)-1,3,4-oxadiazol-2-yl)thio)methyl)benzoate], the melting point came out at 123.6 °C. For the same molecule, the EC50 in the data set on A/Perth/16/2009 (H3N2) (setting [3]) was 41.8 µM. For the same molecule, the EC50 in data set [1] (setting [4]) worked out at 37.8 µM. Also, in the data set with B/Florida/04/2006 (setting [5]), the EC50 is > 50 µM. Besides, the CC50 in the data set “in vitro” (setting [6]) was > 50 µM.
For `Cc1cccc(C)c1Nc1nnc(CCc2ccccc2C(C)C)o1` [Compound 85, N-(2,6-dimethylphenyl)-5-(2-isopropylphenethyl)-1,3,4-oxadiazol-2-amine], the melting point was found to be 234.1 °C. Further, the EC50 in the data set with A/Perth/16/2009 (H3N2) (H3N2, read-out: EC50) was > 50 µM. In data set [1] (H1N1, read-out: EC50), the EC50 was > 50 µM. The EC50 with B/Florida/04/2006 is > 50 µM. Besides, in “in vitro” (CC50, beside the EC50 of c2), the CC50 was > 50 µM. Further, the CC50 in the data set “in vitro” (CC50, beside the EC50 of c4) is > 50 µM. Also, the CC50 in “in vitro” (setting [2]) was > 50 µM.
Consider `O=C(NCc1nnc(SCc2ccccc2-c2ccccc2)o1)c1ccc(Br)cc1` [Compound 51, N-((5-(([1,1′-biphenyl]-2-ylmethyl)thio)-1,3,4-oxadiazol-2-yl)methyl)-4-bromobenzamide], for which the melting point was determined as 135.4 °C. In addition, the EC50 with A/Perth/16/2009 (H3N2) (setting [3]) worked out at 5.04 µM. Further, in data set [1] (setting [4]), the EC50 was found to be 4.01 µM. Moreover, the EC50 in the data set on B/Florida/04/2006 (setting [5]) stood at 6.02 µM. The molecule further displayed a CC50 in “in vitro” (setting [6]) of 28.6 µM.
`Brc1ccc(-c2nnc(SCc3ccccc3-c3ccccc3)o2)cc1` [Compound 42, 2-(([1,1′-biphenyl]-2-ylmethyl)thio)-5-(4-bromophenyl)-1,3,4-oxadiazole] showed a melting point of 120.5 °C. Also, the EC50 in the data set on A/Perth/16/2009 (H3N2) (setting [3]) is 2.33 µM. Further, in data set [1] (setting [4]), the EC50 is 1.62 µM. For the same molecule, the EC50 with B/Florida/04/2006 (setting [5]) is 2.92 µM. Also, the CC50 in “in vitro” (setting [6]) amounted to 14.8 µM.
Regarding `Cc1nn(Cc2nnc(SCc3cccc(-c4ccccc4)c3)o2)c(C)c1Br` [Compound 6, 2-(([1,1′-biphenyl]-3-ylmethyl)thio)-5-((4-bromo-3,5-dimethyl-1H-pyrazol-1-yl)methyl)-1,3,4-oxadiazole], the melting point stood at 90.3 °C. In the data set on A/Perth/16/2009 (H3N2) (setting [3]), the EC50 is 2.74 µM. Further, the EC50 in data set [1] (setting [4]) was 2.91 µM. The EC50 with B/Florida/04/2006 (setting [5]) turned out to be 3 µM. The CC50 in “in vitro” (setting [6]) is > 50 µM.
The molecule `Cc1nn(Cc2nnc(SCc3ccc(-c4ccccc4)cc3)o2)c(C)c1Br` [Compound 2, 2-(([1,1′-biphenyl]-4-ylmethyl)thio)-5-((4-bromo-3,5-dimethyl-1H-pyrazol-1-yl)methyl)-1,3,4-oxadiazole] displayed a melting point of 135.9 °C. The EC50 in the data set with A/Perth/16/2009 (H3N2) (setting [3]) was found to be 46.7 µM. Moreover, the EC50 in data set [1] (setting [4]) is 47.5 µM. In addition, the EC50 with B/Florida/04/2006 (setting [5]) was > 50 µM. Besides, the CC50 in the data set “in vitro” (setting [6]) is > 50 µM.
Molecule `Cc1ccc(F)c(Cc2nnc(/C=C/c3ccc(F)cc3Cl)o2)c1` [Compound 177, (E)-2-(2-chloro-4-fluorostyryl)-5-(2-fluoro-5-methylbenzyl)-1,3,4-oxadiazole] registered a melting point of 136.9 °C. The EC50 in the data set with A/Perth/16/2009 (H3N2) (H3N2, read-out: EC50) came out at 0.753 µM. Besides, in data set [1] (H1N1, read-out: EC50), the EC50 was 0.835 µM. For the same molecule, in the data set on B/Florida/04/2006, the EC50 was 1.07 µM. For the same molecule, in “in vitro” (CC50, beside the EC50 of c2), the CC50 was > 50 µM. The CC50 in “in vitro” (CC50, beside the EC50 of c4) was > 50 µM. Further, the CC50 in the data set “in vitro” (setting [2]) is > 50 µM.
Molecule `CC(C)c1ccccc1/C=C/c1nnc(Cc2cccc3ccccc23)o1` [Compound 132, 2-(2-isopropylstyryl)-5-(naphthalen-1-ylmethyl)-1,3,4-oxadiazole] returned a melting point of 148.1 °C. In the data set on A/Perth/16/2009 (H3N2) (H3N2, read-out: EC50), the EC50 is 1.14 µM. The EC50 in data set [1] (H1N1, read-out: EC50) came out at 1.52 µM. For the same molecule, the EC50 in the data set with B/Florida/04/2006 came out at 1.58 µM. The molecule further gave a CC50 in “in vitro” (CC50, beside the EC50 of c2) of 10.8 µM. For the same molecule, the CC50 in the data set “in vitro” (CC50, beside the EC50 of c4) is 12.2 µM. The same molecule gave a CC50 in the data set “in vitro” (setting [2]) of 13.6 µM.
In turn, `CC(C)c1ccccc1CCc1nnc(Nc2ccc(Br)cc2)o1` [Compound 84, N-(4-bromophenyl)-5-(2-isopropylphenethyl)-1,3,4-oxadiazol-2-amine] returned a melting point of 175.4 °C. The EC50 in the data set with A/Perth/16/2009 (H3N2) (H3N2, read-out: EC50) is 41.7 µM. In data set [1] (H1N1, read-out: EC50), the EC50 came to 34.7 µM. In addition, the EC50 with B/Florida/04/2006 is > 50 µM. For the same molecule, in “in vitro” (CC50, beside the EC50 of c2), the CC50 is > 50 µM. Further, the CC50 in “in vitro” (CC50, beside the EC50 of c4) is > 50 µM. The CC50 in the data set “in vitro” (setting [2]) was > 50 µM.
In turn, `Cc1ccccc1CSc1ccc(C(=O)n2nc(C)c(Br)c2C)o1` [Compound 48, (4-bromo-3,5-dimethyl-1H-pyrazol-1-yl)(5-((2-methylbenzyl)thio)furan-2-yl)methanone] yielded a melting point of 101.2 °C. In addition, the EC50 in the data set with A/Perth/16/2009 (H3N2) (setting [3]) turned out to be 11.3 µM. In addition, the EC50 in data set [1] (setting [4]) worked out at 4.88 µM. Also, in the data set on B/Florida/04/2006 (setting [5]), the EC50 came to 23.4 µM. In “in vitro” (setting [6]), this molecule showed a CC50 of 9.54 µM.
`Fc1ccc(/C=C/c2nnc(Cc3cccc4ccccc34)o2)c(Cl)c1` [Compound 185, (E)-2-(2-chloro-4-fluorostyryl)-5-(naphthalen-1-ylmethyl)-1,3,4-oxadiazole] showed a melting point of 152.7 °C. Besides, in the data set with A/Perth/16/2009 (H3N2) (H3N2, read-out: EC50), the EC50 was > 50 µM. Besides, the EC50 in data set [1] (H1N1, read-out: EC50) is > 50 µM. In the data set with B/Florida/04/2006, the EC50 is > 50 µM. In addition, in the data set “in vitro” (CC50, beside the EC50 of c2), the CC50 was > 50 µM. Moreover, the CC50 in “in vitro” (CC50, beside the EC50 of c4) is > 50 µM. Further, the CC50 in the data set “in vitro” (setting [2]) is > 50 µM.
For `Cc1ccc(-c2ccccc2CSc2nnc(Cn3nc(C)c(Br)c3C)o2)cc1` [Compound 32, 2-((4-bromo-3,5-dimethyl-1H-pyrazol-1-yl)methyl)-5-(((4′-methyl-[1,1′-biphenyl]-2-yl)methyl)thio)-1,3,4-oxadiazole], the melting point was 102.3 °C. Moreover, the EC50 in the data set on A/Perth/16/2009 (H3N2) (setting [3]) worked out at 0.5 µM. In data set [1] (setting [4]), the EC50 was 0.6 µM. The EC50 in the data set on B/Florida/04/2006 (setting [5]) came out at 1.38 µM. In the data set “in vitro” (setting [6]), this molecule showed a CC50 of 7.32 µM.
Consider `Cc1ccccc1CCc1nnc(Nc2ccc(C(F)(F)F)cc2)o1` [Compound 123, 5-(2-methylphenethyl)-N-(4-(trifluoromethyl)phenyl)-1,3,4-oxadiazol-2-amine], for which the melting point was 164.5 °C. Further, in the data set with A/Perth/16/2009 (H3N2) (H3N2, read-out: EC50), the EC50 was found to be 3.61 µM. In addition, in data set [1] (H1N1, read-out: EC50), the EC50 is 14.2 µM. In the data set on B/Florida/04/2006, this molecule had an EC50 of 11 µM. The same molecule displayed a CC50 in the data set “in vitro” (CC50, beside the EC50 of c2) of 35 µM. In addition, the CC50 in “in vitro” (CC50, beside the EC50 of c4) is > 50 µM. In addition, the CC50 in “in vitro” (setting [2]) is > 50 µM.
Take `Cc1ccccc1CCc1nnc(Nc2ccc(F)c(Cl)c2)o1` [Compound 122, N-(3-chloro-4-fluorophenyl)-5-(2-methylphenethyl)-1,3,4-oxadiazol-2-amine]: the melting point came to 87 °C. In the data set on A/Perth/16/2009 (H3N2) (H3N2, read-out: EC50), the EC50 worked out at 43.9 µM. The EC50 in data set [1] (H1N1, read-out: EC50) was 37.4 µM. The EC50 in the data set on B/Florida/04/2006 was > 50 µM. The CC50 in “in vitro” (CC50, beside the EC50 of c2) was > 50 µM. In addition, the CC50 in the data set “in vitro” (CC50, beside the EC50 of c4) is > 50 µM.
Consider `Brc1ccc(Cc2nnc(/C=C/c3ccccc3)o2)cc1` [Compound 165, 2-(4-bromobenzyl)-5-styryl-1,3,4-oxadiazole], for which the melting point is 110.6 °C. Also, in the data set with A/Perth/16/2009 (H3N2) (H3N2, read-out: EC50), the EC50 came out at 3.76 µM. The EC50 in data set [1] (H1N1, read-out: EC50) is 1.95 µM. In addition, the EC50 in the data set on B/Florida/04/2006 was 2.84 µM. In “in vitro” (CC50, beside the EC50 of c2), this molecule showed a CC50 of 12.6 µM. The molecule further showed a CC50 in the data set “in vitro” (CC50, beside the EC50 of c4) of 13.5 µM. In “in vitro” (setting [2]), this molecule registered a CC50 of 10.1 µM.
